Experimental data from patent publication US20260216238A1, “TETRATHIOMOLYBDIC ACID FOR USE IN TREATING COPPER METABOLISM-ASSOCIATED DISEASES OR DISORDERS (WILSON DISEASE)” (Alexion Pharmaceuticals, Inc., priority 2023, published 2026).

Experiments:
[1] = test system: patients with Wilson disease (WD); assay: Study 301: daily mean AUEC of plasma directly measured non-ceruloplasmin-bound copper (dNCC), copper mobilization; format: in vivo, human; settings: for Mean Daily dNCC AUEC0-48 w, LSM: ANCOVA; for Mean Daily dNCC AUEC0-48 w, LSM / Mean Daily dNCC AUEC0-48 w, Mean: multiple imputation; for Mean Daily dNCC AUEC0-48 w, Mean: Full Analysis Set; for Mean Daily dNCC AUEC0-48 w, Between Group LSM Diff / Mean Daily dNCC AUEC0-48 w, Within Group LSM: lower block of Table 5
Text: FIG. 1 provides a schematic view of the study design. […] This study is referred throughout as Study 301.
The primary endpoint integrated copper mobilization and sequestration (i.e., copper control) throughout the 48-week Primary Treatment Period by assessment of daily mean area under the effect-time curve (AUEC) of directly measured non-ceruloplasmin-bound copper (dNCC) concentration. […] Measurement of dNCC in plasma is highly sensitive and accurate, requiring no special formulas or assumptions. As proposed, dNCC AUEC0-48 W is an indirect measure of copper mobilization and sequestration.
This assessment is also applicable to SoC treatments. In addition, plasma Cp, CpC, plasma total copper, and LBC were measured with AUEC calculated for plasma total copper and LBC.
The AUEC for dNCC concentration was calculated using the trapezoidal rule, and then divided by number of days to yield a mean daily AUEC plasma dNCC concentration from baseline to Week 48 (expressed as μmol/L and described as AUEC0-48 W).
Tests were performed at a significance level of 0.05 (2-sided).

[2] = test system: patients with Wilson disease (WD); assay: Clinical Global Impression-Improvement scale (CGI-I); format: in vivo, human; settings: for Transformed CGI-I (−3 to 3), LSM / Transformed CGI-I (−3 to 3), Mean: Study 301 TTM long term set
Text: (§1) Clinical Global Impression-[…]: The Clinical Global Impression (CGI) rating scales were commonly used measures of symptom severity, treatment response, and the efficacy of treatments in treatment studies of adult and pediatric patients with mental disorders.
While transformed CGI-I (TCGI-I) assesses how the WD patients' condition changed compared to baseline, CGI-I may indicate the overall clinical improvement of the patients in the study compared to baseline for each treatment arm.

[3] = test system: patients with Wilson disease (WD); assay: Clinical Global Impression-Severity scale (CGI-S); format: in vivo, human; settings: for CGI-S (1 to 7, 1 is normal) change from baseline, LSM / CGI-S (1 to 7, 1 is normal) change from baseline, Mean: Study 301 TTM long term set
Text: as §1
The Clinical Global Impression-Severity scale (CGI-S) is a 7-point scale that requires the clinician to rate the severity of the patient's illness at the time of assessment, relative to the clinician's past experience with patients who have the same diagnosis. Considering total clinical experience, a patient was assessed on severity of illness at the time of rating as: 1, normal, not at all ill; 2, borderline ill; 3, mildly ill; 4, moderately ill; 5, markedly ill; 6, severely ill; or 7, extremely ill.

[4] = test system: participants with cirrhosis at baseline
Text: Study 205 is registered with ClinicalTrials.gov, number NCT04422431, and incorporated by reference in its entirety.

[5] = test system: patients with Wilson disease (WD); assay: UWDRS Part III minimal clinically important difference (MCID) responders and net promoter score; format: in vivo, human
Text: To calculate net promoter scores, minimal clinically important differences (MCID) were first defined.
Therefore, distribution-based methods were used to compute MCID threshold, half standard deviation (SD), and standard error of measurement (SEM) for the full Study 301 population and the Subpart E population. […] The difference between those two proportions represented the “net promoter score.”

[6] = test system: patients with Wilson disease (WD); assay: Study 301: adverse events in participants who switched from SoC to TTM in the Extension Period; settings: SoC: Weeks 0-48, N=70; TTM after switch: Weeks 49-96, N=61
[7] = Subpopulation E, Week 48, TTM N=78, SoC N=39
[8] = Subpopulation E, Baseline, TTM N=104, SoC N=56
[9] = Subpopulation E, Week 48, TTM N=89, SoC N=47

bis-choline tetrathiomolybdate [TTM]
Mean Daily dNCC AUEC0-48 w, LSM Diff (TTM-SoC) ([1]; Cohort 1): 1.64 µmol/L | Mean Daily dNCC AUEC0-48 w, LSM ([1]; Cohort 1): 2.50 µmol/L | Mean Daily dNCC AUEC0-48 w, Mean ([1]; Cohort 1): 2.68 µmol/L | Mean Daily dNCC AUEC0-48 w, Between Group LSM Diff ([1]; Cohort 1): 1.72 µmol/L | Mean Daily dNCC AUEC0-48 w, Within Group LSM ([1]; Cohort 1): 2.59 µmol/L | Mean Daily dNCC AUEC0-48 w, LSM Diff (TTM-SoC) ([1]; Cohort 2): 3.79 µmol/L | Mean Daily dNCC AUEC0-48 w, LSM ([1]; Cohort 2): 4.76 µmol/L | Mean Daily dNCC AUEC0-48 w, Mean ([1]; Cohort 2): 4.58 µmol/L | Mean Daily dNCC AUEC0-48 w, Between Group LSM Diff ([1]; Cohort 2): 3.68 µmol/L | Mean Daily dNCC AUEC0-48 w, Within Group LSM ([1]; Cohort 2): 4.64 µmol/L | Mean Daily dNCC AUEC0-48 w, LSM Diff (TTM-SoC) ([1]; Overall): 2.18 µmol/L | Mean Daily dNCC AUEC0-48 w, LSM ([1]; Overall): 3.18 µmol/L | Mean Daily dNCC AUEC0-48 w, Mean ([1]; Overall): 3.12 µmol/L | Mean Daily dNCC AUEC0-48 w, Between Group LSM Diff ([1]; Overall): 2.12 µmol/L | Mean Daily dNCC AUEC0-48 w, Within Group LSM ([1]; Overall): 3.06 µmol/L | dNCC area under the effect curve, LSM difference (SE) TTM versus SoC ([1]; W0-W48, cohort 1 incomplete response or intolerant to prior SoC, p<0.0001): 1.64 (0.297) | T-CGI-I (−3 to 3, −3 is very much improved) at 48 weeks, LSM ([2]; Study 301 Full Analysis Set): −0.7 | T-CGI-I (−3 to 3, −3 is very much improved) at 48 weeks, Mean ([2]; Study 301 Full Analysis Set): −0.7 | Transformed Global Improvement (CGI-I), Change from Baseline, LSM ([2]; Subpopulation E, Week 48): −0.7 | Transformed Global Improvement (CGI-I), Change from Baseline, LSM Diff (TTM vs SoC) ([2]; Subpopulation E, Week 48): −0.5 | Transformed Global Improvement (CGI-I), Change from Baseline, Max [2, 7]: 1 | Transformed Global Improvement (CGI-I), Change from Baseline, Mean [2, 7]: −0.7 | Transformed Global Improvement (CGI-I), Change from Baseline, Median [2, 7]: 0.0 | Transformed Global Improvement (CGI-I), Change from Baseline, Min [2, 7]: −3, | Transformed Global Improvement (CGI-I), Change from Baseline, Q1 [2, 7]: −1.0, | Transformed Global Improvement (CGI-I), Change from Baseline, Q3 [2, 7]: 0.0 | T-CGI-I, Difference at 48 weeks, LSM ([2]; TTM vs SoC, P 0.0316): −0.3 | CGI-I, LSM difference (SE) TTM versus SoC ([2]; W0-W48, cohort 1 incomplete response or intolerant, p=0.0051): −0.4 (0.15) | Transformed CGI-I (−3 to 3), LSM ([2]; Week 24): −0.6 | Transformed CGI-I (−3 to 3), Mean ([2]; Week 24): −0.5 | Transformed CGI-I (−3 to 3), LSM ([2]; Week 48): −0.8 | Transformed CGI-I (−3 to 3), Mean ([2]; Week 48): −0.7 | Transformed CGI-I (−3 to 3), LSM ([2]; Week 72): −0.6 | Transformed CGI-I (−3 to 3), Mean ([2]; Week 72): −0.5 | Transformed CGI-I (−3 to 3), LSM ([2]; Week 96): −0.6 | Transformed CGI-I (−3 to 3), Mean ([2]; Week 96): −0.5 | Transformed CGI-I (−3 to 3), LSM ([2]; Week 120): −0.7 | Transformed CGI-I (−3 to 3), Mean ([2]; Week 120): −0.7 | Transformed CGI-I (−3 to 3), LSM ([2]; Week 144): −0.8 | Transformed CGI-I (−3 to 3), Mean ([2]; Week 144): −0.7 | CGI-S (1-7, 1 is normal), Change from Baseline at 48 weeks, LSM ([3]; Study 301 Full Analysis Set): −0.3 | CGI-S (1-7, 1 is normal), Change from Baseline at 48 weeks, Mean ([3]; Study 301 Full Analysis Set): −0.5 | CGI-S, Max [3, 8]: 6 | CGI-S, Mean [3, 8]: 2.9 | CGI-S, Min [3, 8]: 1, | CGI-S, Change from Baseline, LSM ([3]; Subpopulation E, Week 48): −0.4 | CGI-S, Change from Baseline, LSM Diff (SE) (TTM vs SoC) ([3]; Subpopulation E, Week 48): −0.2 (0.13) | CGI-S, Change from Baseline, Max [3, 9]: 1 | CGI-S, Change from Baseline, Mean [3, 9]: −0.4 | CGI-S, Change from Baseline, Median [3, 9]: 0.0 | CGI-S, Change from Baseline, Min [3, 9]: −3, | CGI-S, Change from Baseline, Q1 [3, 9]: −1.0, | CGI-S, Change from Baseline, Q3 [3, 9]: 0.0 | CGI-S, Difference at 48 weeks, LSM ([3]; TTM vs SoC, P 0.2290): −0.2 | CGI-S (1 to 7, 1 is normal) change from baseline, LSM ([3]; Week 24): −0.3 | CGI-S (1 to 7, 1 is normal) change from baseline, Mean ([3]; Week 24): −0.2 | CGI-S (1 to 7, 1 is normal) change from baseline, LSM ([3]; Week 48): −0.4 | CGI-S (1 to 7, 1 is normal) change from baseline, Mean ([3]; Week 48): −0.5 | CGI-S (1 to 7, 1 is normal) change from baseline, LSM ([3]; Week 72): −0.5 | CGI-S (1 to 7, 1 is normal) change from baseline, Mean ([3]; Week 72): −0.6 | CGI-S (1 to 7, 1 is normal) change from baseline, LSM ([3]; Week 96): −0.5 | CGI-S (1 to 7, 1 is normal) change from baseline, Mean ([3]; Week 96): −0.6 | CGI-S (1 to 7, 1 is normal) change from baseline, LSM ([3]; Week 120): −0.7 | CGI-S (1 to 7, 1 is normal) change from baseline, Mean ([3]; Week 120): −0.6 | CGI-S (1 to 7, 1 is normal) change from baseline, LSM ([3]; Week 144): −0.6 | CGI-S (1 to 7, 1 is normal) change from baseline, Mean ([3]; Week 144): −0.6 | participants with cirrhosis at baseline who maintained liver function (albumin levels) ([4]; in vivo): 87% | cirrhotic participants whose albumin levels returned to the normal range ([4]; of the 13 who experienced changes in liver function): 7 participants | patients improved by ≥5 points in UWDRS Part III ([5]; Study 301, by 48 weeks): 44.8% | UWDRS Part III SD MCID Achievers, Net Promoter Score ([5]; improving minus worsening): 16% | UWDRS Part III SE MCID Achievers, Net Promoter Score ([5]; improving minus worsening): 20% | UWDRS Part III SD MCID Achievers, Improving ([5]; in vivo): 22% | UWDRS Part III SD MCID Achievers, Worsening ([5]; in vivo): 6% | UWDRS Part III SE MCID Achievers, Improving ([5]; in vivo): 28% | UWDRS Part III SE MCID Achievers, Worsening ([5]; in vivo): 8% | patients improved at 4-point change threshold in UWDRS Part III ([5]; incomplete and/or intolerant subgroup, 48 weeks): 43.1% | Musculoskeletal and connective tissue disorders, E (events) [6]: 7 | Musculoskeletal and connective tissue disorders, participants with AE [6]: 7 (11.5) N (%)
